# Source: ChEMBL document CHEMBL3603819, “Targeting zoonotic viruses: Structure-based inhibition of the 3C-like protease from bat coronavirus HKU4--The likely reservoir host to the human coronavirus that causes Middle East Respiratory Syndrome (MERS)” (Bioorg Med Chem, 2015)
# System: Tylonycteris bat coronavirus HKU4
# Details: at 100 µM
row,Compound,inhibition
1,CC(C)(C)NC(=O)C(c1ccsc1)N(C(=O)c1cccc2c1CCCC2)c1ccc(OCF)cc1 (stereo not drawn),15%
2,CC(=O)Nc1ccc(N(C(=O)Cn2nnc3ccccc32)C(C(=O)NCc2ccccc2)c2cccc(F)c2)cc1 (stereo not drawn),32%
3,CC(C)c1ccc(N(C(=O)c2ccc(C(F)(F)F)nc2)C(C(=O)NC(C)(C)C)c2ccsc2)cc1 (stereo not drawn),15%
4,COc1cccc(C(=O)N(c2ccc(C(C)(C)C)cc2)C(C(=O)NC(C)(C)C)c2cccnc2)c1 (stereo not drawn),17%
5,CC(C)(C)NC(=O)C(c1cccnc1)N(C(=O)c1ccc[nH]1)c1ccc(C(C)(C)C)cc1 (stereo not drawn),16%
6,CC(C)(C)NC(=O)C(c1cccnc1)N(C(=O)c1ccc(C#N)cc1)c1ccc(C(C)(C)C)cc1 (stereo not drawn),11%
7,CC(C)(C)NC(=O)C(c1ccsc1)N(C(=O)c1n[nH]c2ccccc12)c1ccc(F)cc1 (stereo not drawn),11%
8,CC(C)(C)NC(=O)C(c1ccncc1)N(C(=O)c1ccco1)c1ccc(C(C)(C)C)cc1 (stereo not drawn),28%
9,CC(C)c1ccc(N(C(=O)c2ccc(C#N)cc2)C(C(=O)NC(C)(C)C)c2ccsc2)cc1 (stereo not drawn),21%
10,CC(C)(C)NC(=O)C(c1cccnc1)N(C(=O)c1ccc(C(F)(F)F)cn1)c1ccc(F)cc1 (stereo not drawn),29%
11,CC(C)(C)NC(=O)C(c1cccnc1)N(C(=O)c1ccc(C#N)cc1)C1CC1 (stereo not drawn),23%
12,CC(C)(C)NC(=O)C(c1ccsc1)N(C(=O)Cn1nnc2ccccc21)c1ccc(NC(=O)c2cccs2)cc1 (stereo not drawn),26%
13,CC(C)(C)NC(=O)C(c1ccsc1)N(C(=O)Cn1cnc2ccccc21)c1ccc(N)cc1 (stereo not drawn),18%
14,CC(C)(C)NC(=O)C(c1cc[nH]n1)N(C(=O)c1ccco1)c1ccc(C(C)(C)C)cc1 (stereo not drawn),11%
15,Cc1nc2ccccc2n1CC(=O)N(c1ccc(C(C)(C)C)cc1)C(C(=O)NC(C)(C)C)c1ccsc1 (stereo not drawn),19%
16,CC(C)(C)NC(=O)C(c1cncnc1)N(C(=O)c1cnco1)c1ccc(C(C)(C)C)cc1 (stereo not drawn),58%
17,CC(C)(C)NC(=O)C(c1cccnc1)N(C(=O)c1cccc2c1CCCC2)C1CC1 (stereo not drawn),18%
18,CC(C)(C)NC(=O)C(c1ccsc1)N(C(=O)c1ccc(C#N)cc1)c1ccc(OCF)cc1 (stereo not drawn),16%
19,CC(C)(C)NC(=O)C(c1cccnc1)N(C(=O)CC(F)(F)F)c1ccc(C(C)(C)C)cc1 (stereo not drawn),13%
20,CC(C)C(=O)Nc1ccc(N(Cc2ccsc2)C(=O)Cn2ccnn2)cc1,63%
21,CC(C)(C)NC(=O)C(c1cccnc1)N(C(=O)c1ccco1)c1ccc(OC(F)F)cc1 (stereo not drawn),31%
22,O=C(Nc1ccc(N(C(=O)Cn2nnc3ccccc32)C(C(=O)NCc2ccccc2)c2cccc(F)c2)cc1)C1CCC1 (stereo not drawn),74%

row,Compound,inhibition
1,CC(C)(C)NC(=O)C(c1cccnc1)N(C(=O)c1ccco1)c1ccc(F)cc1 (stereo not drawn),41%
2,CC(C)(C)NC(=O)C(c1ccsc1)N(C(=O)c1n[nH]c2ccccc12)c1ccc(C(C)(C)C)cc1 (stereo not drawn),16%
3,CC(C)(C)NC(=O)C(c1cn[nH]c1)N(C(=O)c1ccco1)c1ccc(C(C)(C)C)cc1 (stereo not drawn),12%
4,CCC(=O)Nc1ccc(N(C(=O)Cn2ccnc2C)C(C(=O)NC(C)(C)C)c2ccsc2)cc1 (stereo not drawn),19%
5,CCCOc1ccc(N(C(=O)c2ccco2)C(C(=O)NC(C)(C)C)c2cccnc2)cc1 (stereo not drawn),10%
6,CC(C)(C)NC(=O)C(c1ccnnc1)N(C(=O)c1ccco1)c1ccc(C(C)(C)C)cc1 (stereo not drawn),35%
7,CC(C)C(=O)Nc1ccc(N(Cc2ccsc2)C(=O)Cn2nnc3ccccc32)cc1,92%
8,O=C(Nc1ccc(N(Cc2ccsc2)C(=O)Cn2nnc3ccccc32)cc1)C1CC1,89%
9,CC(=O)Nc1ccc(N(C(=O)Cn2ccnn2)C(C(=O)NC(C)(C)C)c2ccsc2)cc1 (stereo not drawn),27%
10,CC(C)(C)NC(=O)C(c1cccnc1)N(C(=O)c1n[nH]c2ccccc12)c1ccc(C(C)(C)C)cc1 (stereo not drawn),23%
11,CC(C)(C)NC(=O)C(c1cccnc1)N(C(=O)c1cnco1)c1ccc(C(C)(C)C)cc1 (stereo not drawn),96%
12,CC(C)(C)NC(=O)C(c1ccsc1)N(C(=O)Cc1cccnc1)c1ccc(F)cc1 (stereo not drawn),24%
13,CC(C)(C)NC(=O)C(c1ccsc1)N(C(=O)Cc1cccc2ccccc12)C1CC1 (stereo not drawn),22%
14,O=C(NCc1ccccc1)C(c1cccc(F)c1)N(C(=O)Cn1nnc2ccccc21)C12CC3CC(CC(C3)C1)C2 (stereo not drawn),16%
15,CCC(C)c1ccc(N(C(=O)c2ccco2)[C@@H](C(=O)NC(C)(C)C)c2cccnc2)cc1 (stereo partly drawn),20%
16,CC(C)(C)NC(=O)C(c1ccsc1)N(C(=O)Cn1nnc2ccccc21)c1ccc(NC(=O)C2CCCCC2)cc1 (stereo not drawn),21%
17,CC(C)(C)NC(=O)C(c1cccnc1)N(C(=O)c1ccco1)c1ccc(-c2ccccc2)cc1 (stereo not drawn),22%
18,O=C(Cn1nnc2ccccc21)N(Cc1ccsc1)c1ccc(-c2cccnc2)cc1,90%
19,CC(C)(C)NC(=O)C(c1cccnc1)N(C(=O)c1ccco1)c1ccc(-c2cccn2C(=O)OC(C)(C)C)cc1 (stereo not drawn),17%
20,CC(C)(C)NC(=O)C(c1cccnc1)N(C(=O)c1n[nH]c2ccccc12)C1CC1 (stereo not drawn),21%
21,O=C(Cn1nnc2ccccc21)N(Cc1ccsc1)c1ccc(-c2ccccc2)cc1,21%
22,CC(C)(C)NC(=O)C(c1cccnc1)N(C(=O)Cc1ccccc1)c1ccc(C(C)(C)C)cc1 (stereo not drawn),20%

row,Compound,inhibition
1,CC(C)(C)NC(=O)[C@H](c1cccnc1)N(C(=O)c1ccco1)c1ccc(C(C)(C)C)cc1,65%
2,CC(C)(C)NC(=O)[C@H](c1cccnc1)N(C(=O)c1c[nH]cn1)c1ccc(C(C)(C)C)cc1,44%
3,CC(C)c1ccc(N(C(=O)Cc2c[nH]c3ccccc23)C(C(=O)NC(C)(C)C)c2ccsc2)cc1 (stereo not drawn),25%
4,CC(C)c1ccc(N(C(=O)Cc2cccnc2)C(C(=O)NC(C)(C)C)c2ccsc2)cc1 (stereo not drawn),24%
5,CC(C)(C)NC(=O)C(c1cccnc1)N(C(=O)CO)c1ccc(C(C)(C)C)cc1 (stereo not drawn),29%
6,CC(C)(C)NC(=O)C(c1ccsc1)N(C(=O)Cc1cccnc1)c1ccc(C(C)(C)C)cc1 (stereo not drawn),23%
7,CC(C)(C)NC(=O)C(c1ccsc1)N(C(=O)Cn1nnc2ccccc21)c1ccc(NC(=O)C(C)(C)C)cc1 (stereo not drawn),18%
8,CC(C)(C)NC(=O)C(c1cccnc1)N(C(=O)Cc1cccnc1)c1ccc(C(C)(C)C)cc1 (stereo not drawn),23%
9,CC(C)(C)NC(=O)C(c1c[nH]nn1)N(C(=O)c1ccco1)c1ccc(C(C)(C)C)cc1 (stereo not drawn),16%
10,CC(C)(C)NC(=O)C(c1ccsc1)N(C(=O)c1ccc(C(F)(F)F)cn1)c1ccc(OCF)cc1 (stereo not drawn),18%
11,CC(C)(C)NC(=O)C(c1cccnc1)N(C(=O)c1ccco1)c1ccc(-c2ccccc2C#N)cc1 (stereo not drawn),62%
12,CC(C)(C)NC(=O)C(c1cccnc1)N(C(=O)c1ccc(O)cc1)c1ccc(C(C)(C)C)cc1 (stereo not drawn),11%
13,O=C(Nc1ccc(N(C(=O)Cn2nnc3ccccc32)C(C(=O)NCc2ccccc2)c2cccc(F)c2)cc1)C1CC1 (stereo not drawn),71%
14,CC(C)c1ccc(N(C(=O)Cc2cccnc2)C(C(=O)NC(C)(C)C)c2cccnc2)cc1 (stereo not drawn),41%
15,CC(C)(C)NC(=O)C(c1cccnc1)N(C(=O)c1ccc(C#N)cc1)c1ccc(F)cc1 (stereo not drawn),53%
16,CC(C)(C)NC(=O)C(c1ccsc1)N(C(=O)c1ccco1)C1CC1 (stereo not drawn),18%
17,CC(C)(C)NC(=O)C(c1cccnc1)N(C(=O)c1ccc(Cl)cc1)c1ccc(C(C)(C)C)cc1 (stereo not drawn),27%
18,CC(C)(C)NC(=O)C(c1cccnc1)N(C(=O)c1ccc(C#N)cc1)c1ccc(OCF)cc1 (stereo not drawn),15%
19,COc1cccc(Oc2ccc(N(C(=O)c3ccco3)C(C(=O)NC(C)(C)C)c3cccnc3)cc2)c1 (stereo not drawn),18%
20,CC(C)(C)NC(=O)C(c1ccsc1)N(C(=O)Cn1nnc2ccccc21)c1ccc(NC(=O)c2ccccc2)cc1 (stereo not drawn),79%
21,CC(C)c1ccc(N(C(=O)c2ccc(C#N)cc2)C(C(=O)NC(C)(C)C)c2cccnc2)cc1 (stereo not drawn),28%
22,CC(C)C(=O)Nc1ccc(N(C(=O)Cn2nnc3ccccc32)C(C(=O)NCc2ccccc2)c2cccc(F)c2)cc1 (stereo not drawn),62%

row,Compound,inhibition
1,CC(=O)Nc1ccc(N(C(=O)Cn2cc(-c3ccccc3)nn2)C(C(=O)NC(C)(C)C)c2ccsc2)cc1 (stereo not drawn),19%
2,CC(C)(C)NC(=O)C(c1cccc(F)c1)N(C(=O)Cn1nnc2ccccc21)C1CC2CCC1C2 (stereo not drawn),15%
3,COc1ccc(N(C(=O)c2ccco2)C(C(=O)NC(C)(C)C)c2cccnc2)cc1 (stereo not drawn),10%
4,CC(C)c1ccc(N(C(=O)c2ccco2)C(C(=O)NC(C)(C)C)c2cccnc2)cc1 (stereo not drawn),34%
5,Cc1ccc(C(C(=O)NC(C)(C)C)N(C(=O)c2ccco2)c2ccc(C(C)(C)C)cc2)cn1 (stereo not drawn),8%
6,CC(C)(C)NC(=O)C(c1cccnc1)N(C(=O)Cc1cccnc1)c1ccc(OCF)cc1 (stereo not drawn),18%
7,CCC(=O)Nc1ccc(N(C(=O)Cn2c(C)nc3ccccc32)C(C(=O)NC(C)(C)C)c2ccsc2)cc1 (stereo not drawn),8%
8,CC(C)(C)NC(=O)C(c1cccnc1)N(C(=O)c1cc[nH]n1)c1ccc(C(C)(C)C)cc1 (stereo in doubt; 53B),28%
9,CC(=O)Nc1ccc(N(C(=O)Cn2nnc3ccccc32)C(C(=O)NC(C)(C)C)c2ccsc2)cc1 (stereo not drawn),53%
10,CC(C)(C)NC(=O)C(c1cccnc1)N(C(=O)C1CCCO1)c1ccc(C(C)(C)C)cc1 (stereo not drawn),18%
11,CC(C)c1ccc(N(C(=O)c2cccc3c2CCCC3)C(C(=O)NC(C)(C)C)c2ccsc2)cc1 (stereo not drawn),20%
12,CC(C)(C)NC(=O)C(c1cccnc1)N(C(=O)c1ccco1)C1CCCCC1 (stereo not drawn),6%
13,CC(C)(C)NC(=O)C(c1cccnc1)N(C(=O)c1ccco1)c1ccc(NS(C)(=O)=O)cc1 (stereo not drawn),12%
14,CC(C)(C)NC(=O)C(c1ccsc1)N(C(=O)c1ccc(C#N)cc1)c1ccc(C(C)(C)C)cc1 (stereo not drawn),18%
15,CC(C)(C)NC(=O)C(c1cccnc1)N(C(=O)c1ncccn1)c1ccc(C(C)(C)C)cc1 (stereo not drawn),13%
16,CC(C)(C)NC(=O)C(c1cccnc1)N(C(=O)c1ccco1)c1ccc(Oc2ccccc2)cc1 (stereo not drawn),19%
17,CC(C)(C)NC(=O)C(c1cccnc1)N(C(=O)c1ccco1)c1ccc(-c2cccc(C#N)c2)cc1 (stereo not drawn),16%
18,CC(C)c1ccc(N(C(=O)Cc2cccc3ccccc23)C(C(=O)NC(C)(C)C)c2ccsc2)cc1 (stereo not drawn),13%
19,CNc1ccc(N(Cc2ccsc2)C(=O)Cn2nnc3ccccc32)cc1,91%
20,CC(C)(C)NC(=O)C(c1cccnc1)N(C(=O)c1ccco1)c1ccc(-c2ccc[nH]2)cc1 (stereo not drawn),31%
21,CC(C)(C)NC(=O)C(c1cccc(F)c1)N(C(=O)Cn1nnc2ccccc21)C12CC3CC(CC(C3)C1)C2 (stereo not drawn),14%
22,CC(C)(C)NC(=O)C(c1ccsc1)N(C(=O)c1ccc(C#N)cc1)C1CC1 (stereo not drawn),20%
